Reference: patent publication US6271238A, “Acetamide derivatives and protease inhibitors” (Nippon Kayaku Kabushiki Kaisha, priority 1996, dated 2001)

Columns and labels:
Type in all cases: biochemical
rat chymase = target: T1, rat chymase (Rattus norvegicus, UniProt P09650); experiment: Inhibitory activity on rat chymase (synthetic substrate); settings: substrate succinyl leucyl leucyl valyl tyrosyl methylcoumarylamide; pH 8.0, 37° C., 15 min; read-out: Rat Chymase (IC50: nM), 50% inhibitory concentration
T1 construct: 50 g rat tongue was finely divided by scissors and a scalpel; from tissue; host or cells: rat tongue
T1 sequence (P09650 21-260): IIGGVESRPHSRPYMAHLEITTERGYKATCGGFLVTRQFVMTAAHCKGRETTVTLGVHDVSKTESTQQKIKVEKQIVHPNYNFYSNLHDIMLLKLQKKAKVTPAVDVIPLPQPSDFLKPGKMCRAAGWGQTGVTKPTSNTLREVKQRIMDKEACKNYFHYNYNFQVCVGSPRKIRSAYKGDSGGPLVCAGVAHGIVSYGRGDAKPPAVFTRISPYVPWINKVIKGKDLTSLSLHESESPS
Method: In the present invention, chymase was purified by the methods described in these literatures, and the present compounds were examined for inhibitory activity on chymase, inhibitory action on activation of mast cells and eosinophils, and pharmacological action in animals. Hereinafter, specific methods are described. […] 50 g rat tongue was finely divided by scissors and a scalpel, suspended in 0.1 M phosphate buffer (pH 8.0), and disrupted by a Polytron homogenizer for 5 minutes to prepare a crude chymase enzyme solution. […] The supernatant was applied to an octyl Sepharose 4B column (40×100 mm) previously equilibrated with 0.1 M phosphate buffer (pH 8.0) containing 2 M sodium chloride and 5% ammonium sulfate, and the protein was eluted with a linear concentration gradient of from 2 M to 0 M sodium chloride. […] (D) Measurement of inhibitory activity on chymase (a) Measurement using the synthetic substrate The synthetic chymase substrate was used for measurement of the inhibitory activity on the rat chymase as a subtrate, and the fluorescence of formed aminomethylcoumarin after reaction was measured by a spectrophotometer. […] The test was conducted several times. Chymase was prepared for each test in the manner described above. The compounds examined were compounds prepared in the above-described examples. […] Succinyl leucyl leucyl valyl tyrosyl methylcoumarylamide (for rat […] angiotensin I (for human and dog chymase)

dog chymase = target: T2, dog chymase (Canis lupus familiaris, UniProt P21842); experiment: Inhibitory activity on dog chymase (angiotensin I as substrate); settings: pH 8.0, 37° C., 60 min, read-out: Dog Chymase (IC50: nM), 50% inhibitory concentration
T2 construct: 60 g dog heart was finely divided by scissors and a scalpel; from tissue; host or cells: dog heart
T2 sequence (P21842 22-249): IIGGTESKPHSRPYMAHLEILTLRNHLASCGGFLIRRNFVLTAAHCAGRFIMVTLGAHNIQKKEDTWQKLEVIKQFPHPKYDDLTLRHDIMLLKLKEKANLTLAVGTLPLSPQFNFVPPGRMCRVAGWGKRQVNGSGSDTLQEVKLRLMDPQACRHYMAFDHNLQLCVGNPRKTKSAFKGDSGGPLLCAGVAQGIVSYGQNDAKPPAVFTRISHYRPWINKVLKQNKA
Description: It is known that chymase is present in tissues of various animals, and its isolation and purification methods are described in Anal. Biochem., 137, 449 (1984) and FEBS Letters, 323, 119 (1993). In the present invention, chymase was purified by the methods described in these literatures, and the present compounds were examined for inhibitory activity on chymase, inhibitory action on activation of mast cells and eosinophils, and pharmacological action in animals. Hereinafter, specific methods are described. (c) Preparation of dog chymase 60 g dog heart was finely divided by scissors and a scalpel, suspended in 0.1 M phosphate buffer (pH 8.0), and disrupted by a Polytron homogenizer for 5 minutes to prepare a crude chymase enzyme solution. It was centrifuged at 22000×g for 15 minutes, and the precipitates were used as a chymase enzyme fraction. […] An active fraction decomposing the synthetic chymase substrate was recovered and concentrated and this product was used as a purified dog chymase in the following activity measurement. (D) Measurement of inhibitory activity on chymase (b) Measurement using angiotensin I as substrate The inhibitory activity on the human chymase and dog chymase was measured using angiotensin I (Peptide Kenkyusho) as substrate besides the above synthetic substrate. […] After the end of the reaction, produced angiotensin II was immediately measured by high performance liquid chromatography to determine the activity of the chymase to calculate 50% inhibitory concentration (IC50: nM). The test was conducted several times. Chymase was prepared for each test in the manner described above. The compounds examined were compounds prepared in the above-described examples. […] 50% Inhibitory concentration (IC50: nM) of each compound toward rat chymase, dog […] human […] Substrate: Succinyl leucyl leucyl valyl tyrosyl methylcoumarylamide (for rat […] angiotensin I (for human and dog chymase)

human chymase = target: T3, human chymase (Homo sapiens, UniProt P23946); experiment: Inhibitory activity on human chymase (angiotensin I as substrate); settings: for IC50: substrate angiotensin I, pH 8.0, 37° C., 60 min, read-out: Human Chymase (IC50: nM), 50% inhibitory concentration
T3 construct: 60 g human tonsils were finely divided by scissors and a scalpel; from tissue; host or cells: human tonsils
T3 sequence (P23946 22-247): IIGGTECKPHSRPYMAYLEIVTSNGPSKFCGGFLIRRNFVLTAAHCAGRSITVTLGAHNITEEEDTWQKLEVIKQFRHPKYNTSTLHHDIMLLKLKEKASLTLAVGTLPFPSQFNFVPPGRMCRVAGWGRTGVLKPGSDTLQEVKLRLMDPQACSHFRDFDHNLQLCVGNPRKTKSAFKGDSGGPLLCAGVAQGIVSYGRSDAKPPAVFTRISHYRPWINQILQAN
Description: It is known that chymase is present in tissues of various animals, and its isolation and purification methods are described in Anal. Biochem., 137, 449 (1984) and FEBS Letters, 323, 119 (1993). In the present invention, chymase was purified by the methods described in these literatures, and the present compounds were examined for inhibitory activity on chymase, inhibitory action on activation of mast cells and eosinophils, and pharmacological action in animals. Hereinafter, specific methods are described. 50 g rat tongue was finely divided by scissors and a scalpel, suspended in 0.1 M phosphate buffer (pH 8.0), and disrupted by a Polytron homogenizer for 5 minutes to prepare a crude chymase enzyme solution. […] The supernatant was applied to an octyl Sepharose 4B column (40×100 mm) previously equilibrated with 0.1 M phosphate buffer (pH 8.0) containing 2 M sodium chloride and 5% ammonium sulfate, and the protein was eluted with a linear concentration gradient of from 2 M to 0 M sodium chloride. An active fraction decomposing succinyl leucyl leucyl valyl tyrosyl methylcumarylamide (hereinafter referred to as the synthetic chymase substrate, a product of Peptide Kenkyusho) was recovered and concentrated and this product was used as a purified rat chymase in the following activity measurement. (B) Preparation of human chymase 60 g human tonsils were finely divided by scissors and a scalpel, suspended in 0.1 M phosphate buffer (pH 8.0), and A-disrupted by a Polytron homogenizer for 5 minutes to prepare a crude chymase enzyme solution. It was centrifuged at 22000×g for 30 minutes, and the precipitates were used as a chymase enzyme fraction. […] The supernatant was concentrated by an ultrafiltration membrane, then applied to […] column (6.0×300 mm), and eluted with 0.1 M phosphate buffer (pH 8.0). An active fraction decomposing the synthetic chymase substrate was recovered and concentrated and this product was used as a purified human chymase in the following activity measurement. (D) Measurement of inhibitory activity on chymase (b) Measurement using angiotensin I as substrate The inhibitory activity on the human chymase and dog chymase was measured using angiotensin I (Peptide Kenkyusho) as substrate besides the above synthetic substrate. […] After the end of the reaction, produced angiotensin II was immediately measured by high performance liquid chromatography to determine the activity of the chymase to calculate 50% inhibitory concentration (IC50: nM). The test was conducted several times. Chymase was prepared for each test in the manner described above. The compounds examined were compounds prepared in the above-described examples. […] 50% Inhibitory concentration (IC50: nM) of each compound toward rat chymase, dog […] human […] Substrate: Succinyl leucyl leucyl valyl tyrosyl methylcoumarylamide (for rat […] angiotensin I (for human and dog chymase)

other human proteases = experiment: Inhibitory activity on other human proteases (summary)
Method: (E) Measurement of inhibitory activity on proteases other than chymase
The inhibitory activity of the present compounds on human elastase, human cathepsin G, human urokinase, human thrombin, human plasmin, and human factor Xa was determined using their corresponding synthetic substrates in the same manner as for chymase. All the above proteases were those commercially available from Boehringer Mannheim or purified by a combination of known methods. The synthetic substrates were those produced by Peptide Renkyusho. The synthetic substrates for the respective proteases are as follows.
The test was conducted several times. Chymase was prepared for each test in the manner described above. The compounds examined were compounds prepared in the above-described examples.

| SMILES | IC50 (rat chymase) [nM] | IC50 (dog chymase) [nM] | IC50 (human chymase) [nM] | inhibitory activity on human chymase, in words (human chymase) | inhibitory activity on other human proteases, in words (other human proteases) |
| --- | --- | --- | --- | --- | --- |
| Nc1cnc(-c2ccccc2)n(CC(=O)NC(Cc2ccccc2)C(=O)C(=O)CCCOc2ccccn2)c1=O (centres unmarked) [Compound 75] | 220 | 1 | 2.6 | strong inhibitory activity on human chymase | no inhibitory activity on other human proteases |
| O=C(Cn1c(-c2ccccc2)ncc(NS(=O)(=O)Cc2ccccc2)c1=O)NC(Cc1ccccc1)C(=O)C(=O)CCCOc1ccccn1 (centres unmarked) [Compound 77, 2-(5-Benzylsulfonylamino-6-oxo-2-phenyl-1,6-dihydropyrimidine-1-yl)-N-{2,3-dioxo-1-phenylmethyl-6-(2-pyridyloxy)}hexylacetamide] | 48 | 1.4 | 7 | strong inhibitory activity on human chymase | no inhibitory activity on other human proteases |
| O=C(Cn1c(-c2ccccc2)ncc(NC(=O)OCc2ccncc2)c1=O)NC(Cc1ccccc1)C(=O)C(=O)CCCOc1ccccn1 (centres unmarked) [Compound 78, 2-{6-oxo-2-phenyl-5-(4-pyridylmethyloxycarbonylamino)-1,6-dihydropyrimidine-1-yl}-N-{2,3-dioxo-1-phenylmethyl-6-(2-pyridyloxy)}hexylacetamide] | 42 | 0.32 | 1.6 | strong inhibitory activity on human chymase | no inhibitory activity on other human proteases |
| CC(=O)C(=O)C(Cc1ccc(O)c(F)c1)NC(=O)Cn1c(-c2ccccc2)ncc(N)c1=O (centres unmarked) [Compound 50] | 690 | 19 | 73 | strong inhibitory activity on human chymase | no inhibitory activity on other human proteases |
| O=C(Cn1c(-c2ccccc2)ncc(NC(=O)C2CCOC2)c1=O)NC(Cc1ccccc1)C(=O)C(=O)CCCc1ccccc1 (centres unmarked) [Compound 81] | 150 | 0.29 | 114 | – | – |
| Nc1cnc(-c2ccccc2)n(CC(=O)NC(Cc2ccccc2)C(=O)C(=O)c2ccccc2)c1=O (centres unmarked) [Compound 46] | 2800 | 494 | 1590 | – | – |

Second part, led by results:

| IC50 (rat chymase) [nM] | IC50 (dog chymase) [nM] | IC50 (human chymase) [nM] | SMILES | inhibitory activity on human chymase, in words (human chymase) | inhibitory activity on other human proteases, in words (other human proteases) |
| --- | --- | --- | --- | --- | --- |
| 450 | 9.1 | 101 | CC(=O)C(=O)C(Cc1cccc(C)c1)NC(=O)Cn1c(-c2ccccc2)ncc(N)c1=O (centres unmarked) [Compound 60] | – | – |
| 740 | 13 | 148 | CC(C)(C)OC(=O)Nc1cnc(-c2ccccc2)n(CC(=O)NC(Cc2ccccc2)C(=O)C(=O)CCc2ccccc2)c1=O (centres unmarked) [Compound 41] | – | – |
| 200 | 5 | 131 | CC(=O)C(=O)C(Cc1cccc(Cl)c1)NC(=O)Cn1c(-c2ccccc2)ncc(N)c1=O (centres unmarked) [Compound 62] | – | – |
| 2900 | 22 | 673 | CC(=O)C(=O)C(Cc1ccccc1)NC(=O)Cn1c(-c2ccccc2)ncc(NC(=O)OC(C)(C)C)c1=O (centres unmarked) [Compound 37, 2-(5-t-Butyloxycarbonylamino-6-oxo-1,6-dihydro-2-phenyl-1-pyrimidinyl)-N-(2,3-dioxo-1-phenylmethyl) butylacetamide] | – | – |
| 340 | 71 | 2850 | CC(=O)C(=O)C(Cc1ccc(Cl)cc1)NC(=O)Cn1c(-c2ccccc2)ncc(N)c1=O (centres unmarked) [Compound 58] | – | – |
| 190 | 0.19 | 122 | CC(=O)Nc1cnc(-c2ccccc2)n(CC(=O)NC(Cc2ccccc2)C(=O)C(=O)CCCn2ccccc2=O)c1=O (centres unmarked) [Compound 76] | – | – |
| 920 | 98 | > 10000 | CC(=O)C(=O)C(Cc1ccc(F)cc1)NC(=O)Cn1c(-c2ccccc2)ncc(NC(=O)OC(C)(C)C)c1=O (centres unmarked) [Compound 55] | – | – |
| > 10000 | 33 | 314 | Nc1cnc(-c2ccccc2)n(CC(=O)NC(Cc2ccccc2)C(=O)C(=O)CCCC(=O)O)c1=O (centres unmarked) [Compound 48] | – | – |
